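These data come from cells grown in 96-well plates and exposed to compound for 48 hours at five concentrations. Abbreviation: GI50, concentration required for 50% inhibition of growth. Definition used: TGI = concentration required for complete inhibition of growth.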
What was measured:
Assay in all cases: NCI tumour cell line growth inhibition, 48 h
[1] = test system: M19-MEL melanoma
[2] = test system: HOP-18 NSCLC
[3] = test system: DMS 273 small cell lung
[4] = test system: DLD-1 colon
[5] = test system: MDA-N
[6] = test system: SN12K1 renal
[7] = test system: DMS 114 small cell lung
[8] = test system: P388 leukemia
[9] = test system: P388/ADR leukemia
[10] = test system: XF 498 CNS
[11] = test system: LXFL 529 NSCLC
[12] = test system: RXF-631 renal

| SMILES | TGI [1] | TGI [2] | TGI [3] | TGI [4] | TGI [5] | TGI [7] | TGI [10] | TGI [11] | TGI [12] | further results |
| --- | --- | --- | --- | --- | --- | --- | --- | --- | --- | --- |
| CCCC(=O)N[C@H]1C2C3CC4C5CC(C42)C1(C)C53 (stereo not given in full) | > 100 µM | > 100 µM | > 100 µM | > 100 µM | – | – | – | – | – | – |
| C=C1C(=O)OC2CC(C)C3CC(O)OC(OCC)C3(C)CC12 (stereo not given) | – | – | – | – | 35.7 µM | – | – | – | – | – |
| CC(C)=CCC(OC(=O)C=C(C)C)C1=CC(=O)c2c(O)ccc(O)c2C1=O (stereo not given) | 1.87 µM | 7.58 µM | 5.53 µM | 0.674 µM | – | 3.03 µM | 1.74 µM | – | – | TGI [6]: 2.93 µM; TGI [8]: 2.77 µM; TGI [9]: 19.5 µM |
| CC(=O)[O-].[Mn+3].[O-]c1ccccc1C=NCCNCCN=Cc1ccccc1[O-] | > 100 µM | > 100 µM | > 100 µM | – | – | – | – | > 100 µM | – | GI50 [11]: > 100 µM; GI50 [1]: > 100 µM; GI50 [2]: > 100 µM; GI50 [3]: > 100 µM |
| CC1=Nc2ccccc2/C1=C\c1c(C)[nH]c2ccccc12 | – | – | – | – | 37.4 µM | – | – | – | – | – |
| CN1CCc2c1nc(-c1ccc(Cl)cc1)c1c2N(C)CC1 | > 100 µM | – | 32 µM | 82.4 µM | – | 34.3 µM | 32.6 µM | 77 µM | – | – |
| Cc1c(NC(=S)NC(=O)c2ccc([N+](=O)[O-])cc2)c(=O)n(-c2ccccc2)n1C | > 100 µM | > 100 µM | > 100 µM | > 100 µM | – | > 100 µM | – | > 100 µM | – | – |
| COC(=O)CC(NC(=O)OCc1ccccc1)C(C(=O)OCc1ccccc1)C(C)(OC)OC (stereo not given) | > 100 µM | – | > 100 µM | > 100 µM | – | 91.7 µM | 37.3 µM | 57.2 µM | – | – |
| COc1cc2c(cc1O)CC1c3c(cc(O)c(OC)c3-2)CCN1C (stereo not given) | – | – | – | – | > 100 µM | – | – | – | – | – |
| CC1=Cc2ccc(C)cc2C(=O)C1=O | – | – | – | – | 11.9 µM | – | – | – | – | – |
| CC(C)Cc1ccc(C(C)CC2=CCC(CN(C)C)C2=O)cc1 (stereo not given) | 13.8 µM | 32.6 µM | 14.9 µM | 5.61 µM | 17.9 µM | 10.9 µM | – | 3.11 µM | 30.5 µM | TGI [6]: 11.7 µM; TGI [8]: 6.34 µM; TGI [9]: > 100 µM |
| C1CC2CN(CCCN3CCOCC3)C(C1)O2 (stereo not given) | – | – | – | – | > 100 µM | – | – | – | – | – |
| Cc1ccc(N=Nc2c(O)ccc3ccccc23)cc1 | – | – | – | – | > 100 µM | – | – | – | – | – |
| COc1ccc(C(=O)C(CC2C(=O)NC(=O)NC2=O)c2ccc(OC)cc2)cc1 (stereo not given) | > 100 µM | > 100 µM | > 100 µM | > 100 µM | – | > 100 µM | > 100 µM | > 100 µM | – | – |
| C[C@]12CC[C@H](O)CC1=CC[C@@H]1C2CC[C@]2(C)Nc3c(cnn3-c3ccccc3)CC12 (stereo not given in full) | 27.5 µM | – | 3.66 µM | 35.7 µM | – | 15.1 µM | – | 19.7 µM | 3.82 µM | – |
| COc1cc(C)c(C2NC(=O)c3ccccc3N2)cc1C (stereo not given) | – | – | – | – | 0.128 µM | – | – | – | – | – |
| CCOC(=O)N1CCc2cc(OC)c(OC)cc2/C1=C\c1ccc(OC)c(OC)c1 | 63.3 µM | 90.7 µM | 61.9 µM | > 100 µM | – | > 100 µM | > 10 µM | > 100 µM | – | – |
| Cc1cc(N(CCC#N)CCC#N)ccc1N=Nc1ccc(Br)cc1 | > 100 µM | > 100 µM | > 31.6 µM | > 100 µM | – | > 71.3 µM | 13.3 µM | > 100 µM | 25.1 µM | – |
| O=C1CCC(N2C(=O)c3ccccc3C2=O)C(=O)N1 (stereo not given) | – | – | – | – | > 100 µM | – | – | – | – | – |
| Cc1ccc(S(=O)(=O)c2ccccc2[N+](=O)[O-])cc1 | > 100 µM | – | > 100 µM | > 100 µM | – | > 100 µM | > 100 µM | > 100 µM | > 100 µM | – |

| SMILES | TGI [1] | TGI [2] | TGI [3] | TGI [4] | TGI [5] | TGI [7] | TGI [10] | TGI [11] | TGI [12] | further results |
| --- | --- | --- | --- | --- | --- | --- | --- | --- | --- | --- |
| COC(=O)C1C(O)C(C)C(O)C(C)C=C(C)C2=C3C(=C(C)C(=O)c4c(O)c(c(C)c(OC(C)=O)c43)NC(=O)C(C)=C/C=C\C(C)C(O)C(C)C1O)OCO2 (stereo not given) | – | – | – | – | 31.8 µM | – | – | – | – | – |
| CC(C)CCCC(C)[C@H]1CCC2[C@@H]3CCC4Nc5c(cnn5-c5ccccc5)C[C@]4(C)C3CC[C@@]21C (stereo not given in full) | > 100 µM | > 100 µM | 8.08 µM | > 100 µM | – | > 100 µM | > 100 µM | > 100 µM | 38.4 µM | – |
| COC(=O)c1c2c(cc3c1CC1(Cc4cc5c(c(C(C)=O)c4C1)CCC5)C3)CCC2 (stereo not given) | > 100 µM | > 100 µM | > 100 µM | > 100 µM | – | > 100 µM | > 100 µM | > 100 µM | – | – |
| O=S(=O)(NCn1ccc2ccccc21)c1ccccc1 | > 100 µM | > 100 µM | > 100 µM | > 100 µM | – | – | > 100 µM | > 100 µM | > 100 µM | – |
| CC(=O)OCC(=O)[C@@]12OC(C)(C)O[C@@H]1C[C@H]1[C@@H]3CC(C=O)=C4C=C(OCCCl)CC[C@]4(C)[C@@]3(F)[C@@H](O)C[C@@]12C | > 100 µM | 87.6 µM | > 100 µM | > 100 µM | – | > 100 µM | 35.8 µM | – | – | – |
| CC(=O)O[C@]1(C)OC(=O)[C@@H](CC(C)C)N1[N+](=O)[O-] | > 100 µM | > 100 µM | > 100 µM | > 100 µM | – | > 100 µM | – | > 100 µM | – | – |
| NNC(=O)C(=O)N/N=C1\CCC(=O)CC1C(=O)CCC(=O)Nc1ccc(Cl)cc1 (stereo not given) | > 100 µM | > 100 µM | > 100 µM | > 100 µM | – | – | – | > 100 µM | – | – |
| c1cncc(CNCc2cccnc2)c1 | – | – | – | – | > 100 µM | – | – | – | – | – |
| C1CC[N-]CC1.CC(=N\O)/C(C)=N/O.CC(=N\O)/C(C)=N/O.OC1[CH-]CCCC1.[Co+2] | – | – | – | – | > 100 µM | – | – | – | – | GI50 [5]: 40.9 µM |
| CN(C)CCSS(=O)(=O)O | – | – | – | – | > 100 µM | – | – | – | – | – |
| CCOC(=O)CCn1ncc(Cl)c(Cl)c1=O | 8.35 µM | 11.7 µM | 27 µM | 21.5 µM | – | 4.3 µM | 37.9 µM | 10.5 µM | 7.92 µM | – |
| C[Si](C)(C)/C=C\CCO | > 100 µM | > 100 µM | > 100 µM | > 100 µM | – | > 100 µM | > 100 µM | > 100 µM | > 100 µM | – |
| C=CCO/N=C(\OC(=O)c1ccc([N+](=O)[O-])cc1)c1ccccc1 | > 100 µM | > 100 µM | > 100 µM | > 100 µM | – | > 100 µM | – | > 100 µM | > 100 µM | – |
| O=C1/C(=C/c2ccccc2)CN(C(=O)CCN2CCCC2)C/C1=C\c1ccccc1 | 3.79 µM | 9.09 µM | 3.58 µM | 3.12 µM | 1.46 µM | 4.66 µM | 16.8 µM | 4.36 µM | 13.2 µM | – |
| O=C1CC(c2[nH]nc3ccccc23)C(=O)N1c1ccccc1 (stereo not given) | > 100 µM | > 100 µM | > 100 µM | > 100 µM | > 100 µM | > 100 µM | > 100 µM | > 100 µM | > 100 µM | – |
| N.N.N.N.N.O=[N+]([O-])[O-].[Co+3].[O-][Cl+3]([O-])([O-])[O-] | – | – | > 100 µM | > 100 µM | – | – | – | > 100 µM | – | GI50 [11]: > 100 µM; GI50 [3]: > 100 µM; GI50 [4]: > 100 µM |
| C#Cc1c(C)c(/C=C/C(C)=C/C(=O)OC)n(C)c1C | > 100 µM | > 100 µM | > 100 µM | > 100 µM | – | > 100 µM | > 100 µM | > 100 µM | – | – |
| COc1ccc(CCc2cc(OC)cc(OC)c2)cc1 | > 100 µM | > 100 µM | > 100 µM | > 100 µM | – | 24.6 µM | 83.8 µM | > 100 µM | > 72.7 µM | – |
| O=c1[nH]c2ccccc2n1CCCN1CCC(n2c(=O)[nH]c3cc(Cl)ccc32)CC1 | – | – | – | – | 29.4 µM | – | – | – | – | – |
| O=C(O)CCNCCCCNCCC(=O)O | – | > 100 µM | > 100 µM | > 100 µM | – | – | > 100 µM | > 100 µM | – | – |
